# Reference: the supplement of paper PMC10307832
# Compound: CC1(COc2ccc3c(c2)ncn3-c2ccc3cccc(N4CCC(N)CC4)c3n2)COC1 [Crenolanib] + Nc1nc2[nH]cc(CCc3ccc(C(=O)N[C@@H](CCC(=O)O)C(=O)O)cc3)c2c(=O)[nH]1 [Pemetrexed] (partner 0.2 µM)
# Test: relative viability (nuclei count vs DMSO), 5 days (fraction); higher = more cells survive
# Conditions: first compound 0.01 µM
# Method in brief: (§1)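 Relative viability divides the nuclei count in treated wells by that in vehicle wells. Lung cancer cell lines were seeded in 1536-well plates, dosed by pin tool the next day, and fixed and stained after 5 days in one step with final 0.05% Triton X-100, 1% formaldehyde and 1 ug/ml Hoechst. Dosing was a single drug or a fixed anchor-drug dose plus five library-drug doses (not always all listed) in √10 steps, and values are medians of duplicate plates imaged at 4×.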
row,Cell Line,relative viability
1,NCI-H596,0.462
2,NCI-H2228,0.3
3,EMC-BAC-2,0.437
4,NCI-H2087,0.719
5,HCC-44,0.639
6,NCI-H647,0.202
7,LK-2,0.314
8,NCI-H2126,0.725
9,NCI-H2342,0.749
10,SK-MES-1,1.06
11,HARA,0.3
12,COR-L23,0.185
13,COR-L 105,1.25
14,LC-2-ad,0.265
15,LU99A,0.22
16,ChaGo-K-1,0.26
17,NCI-H2170,0.366
18,NCI-H3122,0.205
19,HCC-78,0.864
20,SW 900,0.502
21,LXF-289,0.853
22,BEN,0.784
23,HCC-15,0.23
24,NCI-H1648,0.742
25,NCI-H1395,0.88
26,NCI-H1563,0.736
27,NCI-H1792,0.738
28,NCI-H1793,1.02
29,NCI-H1944,0.735
30,NCI-H358,0.176

# Same assay, conditions: first compound 0.03162 µM
row,Cell Line,relative viability
1,NCI-H522,1.19
2,NCI-H838,0.253
3,NCI-H1651,0.599
4,NCI-H1734,0.423
5,NCI-H2009,1.06
6,EPLC-272H,0.342
7,PC-14,0.127
8,LCLC-97TM1,0.188
9,NCI-H596,0.481
10,NCI-H2228,0.33
11,NCI-H2087,0.7
12,HCC-44,0.662
13,NCI-H647,0.19
14,LK-2,0.268
15,NCI-H2126,0.678
16,NCI-H2342,0.72
17,SK-MES-1,0.964
18,HARA,0.231

row,Cell Line,relative viability
1,COR-L23,0.189
2,COR-L 105,1.09
3,LC-2-ad,0.287
4,LU99A,0.204
5,ChaGo-K-1,0.256
6,NCI-H2170,0.266
7,NCI-H3122,0.212
8,HCC-78,1.01
9,LXF-289,0.905
10,BEN,0.637
11,HCC-15,0.215
12,NCI-H1395,0.768
13,NCI-H1563,0.679
14,NCI-H1792,0.853
15,NCI-H1793,0.912
16,NCI-H1944,0.646
17,NCI-H358,0.169

# Same assay, conditions: first compound 0.1 µM
row,Cell Line,relative viability
1,NCI-H522,1.06
2,NCI-H838,0.258
3,NCI-H1651,0.592
4,NCI-H1734,0.423
5,NCI-H2009,1.07
6,EPLC-272H,0.346
7,PC-14,0.16
8,LCLC-97TM1,0.182
9,NCI-H596,0.47
10,NCI-H2228,0.34
11,EMC-BAC-2,0.456
12,NCI-H2087,0.684
13,HCC-44,0.707
14,NCI-H647,0.201
15,LK-2,0.263
16,NCI-H2126,0.694
17,NCI-H2342,0.691
18,SK-MES-1,0.886
19,HARA,0.224

row,Cell Line,relative viability
1,COR-L23,0.201
2,COR-L 105,1.09
3,LC-2-ad,0.277
4,LU99A,0.151
5,ChaGo-K-1,0.255
6,NCI-H2170,0.276
7,NCI-H3122,0.203
8,HCC-78,0.909
9,SW 900,0.48
10,LXF-289,0.865
11,BEN,0.677
12,HCC-15,0.227
13,NCI-H1648,0.821
14,NCI-H1395,0.924
15,NCI-H1563,0.711
16,NCI-H1792,0.8
17,NCI-H1793,0.835
18,NCI-H1944,0.562
19,NCI-H358,0.176

# Same assay, conditions: first compound 0.3162 µM
row,Cell Line,relative viability
1,NCI-H522,1.06
2,NCI-H838,0.264
3,NCI-H1651,0.566
4,NCI-H1734,0.395
5,NCI-H2009,0.966
6,EPLC-272H,0.336
7,PC-14,0.133
8,LCLC-97TM1,0.197
9,NCI-H596,0.513
10,NCI-H2228,0.337
11,EMC-BAC-2,0.449
12,NCI-H2087,0.555
13,HCC-44,0.632
14,NCI-H647,0.209
15,LK-2,0.27
16,NCI-H2126,0.715
17,NCI-H2342,0.771
18,SK-MES-1,0.967
19,HARA,0.225

row,Cell Line,relative viability
1,COR-L23,0.199
2,COR-L 105,1.14
3,LC-2-ad,0.291
4,LU99A,0.197
5,ChaGo-K-1,0.253
6,NCI-H2170,0.286
7,NCI-H3122,0.203
8,HCC-78,0.956
9,SW 900,0.509
10,LXF-289,0.922
11,BEN,0.752
12,HCC-15,0.228
13,NCI-H1648,0.699
14,NCI-H1395,0.831
15,NCI-H1563,0.759
16,NCI-H1792,0.968
17,NCI-H1793,1.08
18,NCI-H1944,0.837
19,NCI-H358,0.178

# Same assay, conditions: first compound 1 µM
row,Cell Line,relative viability
1,NCI-H522,0.738
2,NCI-H838,0.281
3,NCI-H1651,0.62
4,NCI-H1734,0.38
5,NCI-H2009,0.847
6,EPLC-272H,0.353
7,PC-14,0.143
8,LCLC-97TM1,0.184
9,NCI-H596,0.507
10,NCI-H2228,0.324
11,EMC-BAC-2,0.436
12,NCI-H2087,0.675
13,HCC-44,0.642
14,NCI-H647,0.217
15,LK-2,0.274
16,NCI-H2126,0.605
17,NCI-H2342,0.754
18,SK-MES-1,0.929
19,HARA,0.236

row,Cell Line,relative viability
1,COR-L23,0.202
2,COR-L 105,1.1
3,LC-2-ad,0.261
4,LU99A,0.198
5,ChaGo-K-1,0.27
6,NCI-H2170,0.271
7,NCI-H3122,0.18
8,HCC-78,0.865
9,SW 900,0.484
10,LXF-289,0.897
11,BEN,0.774
12,HCC-15,0.213
13,NCI-H1648,0.716
14,NCI-H1395,0.864
15,NCI-H1563,0.742
16,NCI-H1792,0.803
17,NCI-H1793,0.993
18,NCI-H1944,0.542
19,NCI-H358,0.188

# Compound: O=C1NC(=O)[C@@H](c2cn3c4c(cccc24)CCC3)[C@@H]1c1c[nH]c2ccccc12 [Tivantinib] + CC(C)C[C@H](NC(=O)[C@H](Cc1ccccc1)NC(=O)c1cnccn1)B(O)O [Bortezomib] (partner 0.002 µM)
# Test: as above
# Conditions: first compound 0.01 µM
# Method in brief: as §1
row,Cell Line,relative viability
1,NCI-H838,0.712
2,NCI-H1651,0.957
3,EBC-1,0.611
4,NCI-H1734,0.932
5,NCI-H2009,1.01
6,EPLC-272H,1.16
7,PC-14,0.873
8,LCLC-97TM1,0.742
9,NCI-H596,1.19
10,NCI-H2228,0.886
11,EMC-BAC-2,1.05
12,NCI-H2087,0.759
13,Calu-6,1.08
14,HCC-44,0.87
15,NCI-H1703,0.36
16,NCI-H647,0.977
17,NCI-H2126,1.09

row,Cell Line,relative viability
1,HARA,1.16
2,COR-L23,0.977
3,COR-L 105,0.754
4,LC-2-ad,1.18
5,LU99A,1.19
6,ChaGo-K-1,0.96
7,NCI-H3122,1.05
8,IA-LM,0.855
9,HCC-78,0.593
10,LXF-289,1.04
11,BEN,0.75
12,HCC-15,0.949
13,NCI-H727,0.751
14,NCI-H1299,1
15,NCI-H1563,0.831
16,NCI-H1792,0.943
17,ABC-1,0.287

# Same assay, conditions: first compound 0.03162 µM
row,Cell Line,relative viability
1,NCI-H838,0.61
2,NCI-H1651,1.03
3,EBC-1,0.596
4,NCI-H1734,1.01
5,NCI-H2009,0.646
6,EPLC-272H,0.813
7,PC-14,0.917
8,LCLC-97TM1,0.734
9,NCI-H596,1.09
10,NCI-H2228,0.908
11,EMC-BAC-2,0.989
12,NCI-H2087,0.639
13,Calu-6,1.07
14,HCC-44,0.975
15,NCI-H1703,0.362
16,NCI-H647,0.848
17,NCI-H2126,1.11

row,Cell Line,relative viability
1,HARA,1.04
2,COR-L23,0.93
3,COR-L 105,0.398
4,LC-2-ad,0.853
5,LU99A,0.99
6,ChaGo-K-1,0.957
7,NCI-H3122,1.03
8,IA-LM,0.942
9,HCC-78,0.319
10,LXF-289,1
11,BEN,0.561
12,HCC-15,0.995
13,NCI-H727,0.772
14,NCI-H1299,1
15,NCI-H1563,0.748
16,NCI-H1792,0.968
17,ABC-1,0.243

# Same assay, conditions: first compound 0.1 µM
row,Cell Line,relative viability
1,NCI-H838,0.683
2,NCI-H1651,0.918
3,EBC-1,0.557
4,NCI-H1734,0.843
5,NCI-H2009,1.01
6,EPLC-272H,0.741
7,PC-14,0.777
8,LCLC-97TM1,0.517
9,NCI-H596,1.78
10,NCI-H2228,1.13
11,EMC-BAC-2,1.04
12,NCI-H2087,0.664
13,Calu-6,0.969
14,HCC-44,0.883
15,NCI-H1703,0.29
16,NCI-H647,0.775
17,NCI-H2126,1.09

row,Cell Line,relative viability
1,HARA,1.07
2,COR-L23,0.942
3,COR-L 105,0.671
4,LC-2-ad,0.976
5,LU99A,1.18
6,ChaGo-K-1,0.941
7,NCI-H3122,1.04
8,IA-LM,0.743
9,HCC-78,0.38
10,LXF-289,0.922
11,BEN,0.744
12,HCC-15,0.943
13,NCI-H727,0.867
14,NCI-H1299,1.04
15,NCI-H1563,0.897
16,NCI-H1792,0.927
17,ABC-1,0.337

# Same assay, conditions: first compound 0.3162 µM
row,Cell Line,relative viability
1,NCI-H838,0.786
2,NCI-H1651,0.942
3,EBC-1,0.465
4,NCI-H1734,1
5,NCI-H2009,1.1
6,EPLC-272H,0.608
7,PC-14,0.822
8,LCLC-97TM1,0.764
9,NCI-H596,0.936
10,NCI-H2228,0.932
11,EMC-BAC-2,0.969
12,NCI-H2087,0.893
13,Calu-6,0.738
14,HCC-44,0.915
15,NCI-H1703,0.31
16,NCI-H647,1.14

row,Cell Line,relative viability
1,NCI-H2126,1.06
2,HARA,1.06
3,COR-L23,0.996
4,COR-L 105,0.354
5,LC-2-ad,1.08
6,LU99A,1.09
7,ChaGo-K-1,0.989
8,NCI-H3122,0.995
9,IA-LM,0.848
10,LXF-289,1.04
11,BEN,0.824
12,HCC-15,1.04
13,NCI-H1299,1.03
14,NCI-H1563,0.809
15,NCI-H1792,0.813
16,ABC-1,0.301
